Counter-ions that a name gives are not always drawn. Like-named read-outs stand apart in the source and are kept apart here.
Columns and labels:
[1] = Exposure at 40° C./approximately 75% relative humidity with XRPD and HPLC analysis; format: physicochemical; conditions: approximately 75% relative humidity
Method: (ii) In a separate test, approximately 10 mg of the mesylate salt as prepared above was pressed flat onto a glass slide to achieve a high surface area and placed in a dessicator containing a saturated aqueous solution of sodium chloride. This in turn was placed in an incubator held at 40° C. to provide an atmosphere of approximately 75% relative humidity. The sample was removed on 8 and 18 days and the XRPD profiles of the sample at these times were compared to the XRPD profile of the salt prior to commencement of the test.

[2] = Gravimetric Vapour Sorption (GVS) study; format: physicochemical
Method: (i) Gravimetric Vapour Sorption (GVS) studies were carried out to investigate the behaviour of the mesylate salt in conditions of varying humidity. The mesylate salt used in the studies was prepared from the hydrochloride salt (see Example 11) by the following method.
Samples of the mesylate salt produced by the method described above were run on a Hiden IGASorp moisture sorption analyser running CFRSorp software. The sample sizes were typically 10 mg. Moisture adsorption-desorption isotherms were performed as set out in the following table:
A double cycle was run using a sample of 12.92 mg of the mesylate salt. […] However, provided that the salt is not exposed to relative humidities of more than 80%, the water uptake is less than 2.6% w/w. Importantly, water which was taken up during the adsorption stage was lost during the desorption state indicating the uptake of water is a surface effect.

HCT-1 16 cells = assay: Anti-proliferative activity (Alamar Blue assay); format: cell-based; conditions: Homo sapiens, HCT-116, 72 hours
Method: The anti-proliferative activities of a compound can be determined by measuring the ability of the compound to inhibition of cell growth in a number of cell lines. Inhibition of cell growth is measured using the Alamar Blue assay (Nociari, M. M, Shalev, A., Benias, P., Russo, C. Journal of Immunological Methods 1998, 213, 157-167). The method is based on the ability of viable cells to reduce resazurin to its fluorescent product resorufin. For each proliferation assay cells are plated onto 96 well plates and allowed to recover for 16 hours prior to the addition of inhibitor compounds for a further 72 hours. At the end of the incubation period 10% (v/v) Alamar Blue is added and incubated for a further 6 hours prior to determination of fluorescent product at […]. In the case of the non-proliferating cell assay cells are maintained at confluence for 96 hour prior to the addition of inhibitor compounds for a further 72 hours. The number of viable cells is determined by Alamar Blue assay as before. Cell lines can be obtained from the ECACC (European Collection of cell Cultures).

[3] = Stability trial of methanesulphonate salt at 40° C./75% relative humidity for six months; format: physicochemical
Method: Samples of the methanesulphonate salt of Example 1 were stored in sealed bags inside a sealed container at a temperature of 40° C. and in an atmosphere of 75% relative humidity for a period of six months. At periods of 1 month, 3 months and 6 months, various tests were carried out to determine whether any changes to the purity or physical state of the salt had occurred. The tests were as follows:
(a) Visual examination of the colour and physical appearance of the salt.
(b) Fourier Transform Infra Red (FTIR) spectroscopy—comparison with reference standard spectrum.
(c) Determination of melting point by differential scanning calorimetry (DSC).
(d) Determination of water content by a coulometric method using the coulometric reagent AKX.
(e) Analysis of impurities by HPLC.

[4] = Solubility of the mesylate salt in buffered solutions (HPLC assay); format: physicochemical; conditions: acetate buffer, pH 4.6, aqueous buffer, thermodynamic from solid
Method: An investigation into the solubility of the mesylate salt of Example 1 in various buffering systems was carried out at ambient temperature and at 4° C. In a first set of experiments, the buffers selected were 200 mM succinate pH 5.5, citrate pH 5.5, and Tris/maleate pH 5.5, 6.5 and 7.5. A second set of buffers utilised included a 200 mM acetate pH 4.6, glycine/methanesulphonic acid pH 4.6 and glycine pH 5.5.
This buffer was prepared by dissolving 4.44 g sodium acetate in 200 ml water. A volume (50 ml) of this solution was titrated with 0.20 M acetic acid solution ([…] in 200 ml water) and made up to 200 ml with water. A 0.20 M acetate buffer solution of pH 4.6 was prepared.
With each pH and buffer system, two experiments were performed, one at ambient temperature and one at 4° C. In each experiment, to 4.0 ml buffer solution was added a nominal 220 mg of the mesylate salt and the solution mixture was stirred. The stirring was stopped after 3 hours, the solution filtered through a PVDF 0.22 μm membrane filter, diluted in sample diluent and assayed for mesylate salt content by HPLC. Throughout the experiments, the mesylate salt content of each sample was calculated using single point calibration each time.

[5] = 40° C./75% relative humidity, t = 0
[6] = 40° C./75% relative humidity, t = 1 month
[7] = 40° C./75% relative humidity, t = 3 months
[8] = 40° C./75% relative humidity, t = 6 months

For `O=C(NC1CCNCC1)c1n[nH]cc1NC(=O)c1c(Cl)cccc1Cl` [mesylate salt, 4-(2,6-dichlorobenzoylamino)-1H-pyrazole-3-carboxylic acid piperidin-4-ylamide methanesulphonate], the “changes in XRPD profile” value ([1]; 8 and 18 days) was “No changes were observed”, the “degradation by HPLC analysis” value ([1]; up to 18 days) was “no degradation” and the “water uptake (GVS)” value ([2]; not exposed to relative humidities of more than 80%) was “less than 2.6 % w/w”. For the same compound, the “water picked up (GVS isotherm)” value ([2]; over the range 0% relative humidity to 90% relative humidity) was “approximately 4 % in weight”, the IC50 (HCT-1 16 cells) was 110 nM and the overall stability ([3]; 40° C., 75% relative humidity, six months) was “good stability”. The “(a) Description” value [3, 5] was “Off-white solid”, the “(b) Identity by FTIR” value [3, 5] was “Conforms to” and the “(c) Melting point by DSC, melting endotherm” value (“(c) Melting point by DSC” for short) [3, 5] was 367.7 °C. The “(d) Water content” value [3, 5] was less than 0.1% w/w, the “(e) Impurities (by HPLC) Total impurities” value (shortened to “(e) Impurities”) [3, 5] was 0.52% area and the Chemical purity [3, 5] was 99.48% area. The “Impurity RRT 0.812 (by HPLC)” value [3, 5] was 0.07% area, the “Impurity RRT 1.196 (by HPLC)” value [3, 5] was 0.01% area and the “Impurity RRT 1.226 (by HPLC)” value [3, 5] was 0.02% area. For the same compound, the “Impurity RRT 1.303 (by HPLC)” value [3, 5] was 0.02% area, the “Impurity RRT 1.318 (by HPLC)” value [3, 5] was 0.03% area and the “Impurity RRT 1.484 (by HPLC)” value [3, 5] was 0.15% area. The “Impurity RRT 1.526 (by HPLC)” value [3, 5] was 0.03% area, the “Impurity RRT 1.680 (by HPLC)” value [3, 5] was 0.19% area and the “(a) Description” value [3, 6] was “Off-white solid”. For the same compound, the “(b) Identity by FTIR” value [3, 6] was “Conforms to”, the “(c) Melting point by DSC” value [3, 6] was 368.3 °C and the “(d) Water content” value [3, 6] was less than 0.1% w/w. For the same compound, the “(e) Impurities” value [3, 6] was 0.49% area, the Chemical purity [3, 6] was 99.51% area and the “Impurity RRT 0.812 (by HPLC)” value [3, 6] was 0.07% area. For the same compound, the “Impurity RRT 1.196 (by HPLC)” value [3, 6] was 0.02% area, the “Impurity RRT 1.303 (by HPLC)” value [3, 6] was 0.06% area and the “Impurity RRT 1.484 (by HPLC)” value [3, 6] was 0.17% area. The “Impurity RRT 1.680 (by HPLC)” value [3, 6] was 0.17% area, the “(a) Description” value [3, 7] was “Off-white solid” and the “(b) Identity by FTIR” value [3, 7] was “Conforms to”. The “(c) Melting point by DSC” value [3, 7] was 375.5 °C, the “(d) Water content” value [3, 7] was less than 0.1% w/w and the “(e) Impurities” value [3, 7] was 0.50% area. The Chemical purity [3, 7] was 99.50% area, the “Impurity RRT 0.812 (by HPLC)” value [3, 7] was 0.06% area and the “Impurity RRT 1.226 (by HPLC)” value [3, 7] was 0.02% area. For the same compound, the “Impurity RRT 1.318 (by HPLC)” value [3, 7] was 0.04% area, the “Impurity RRT 1.484 (by HPLC)” value [3, 7] was 0.17% area and the “Impurity RRT 1.526 (by HPLC)” value [3, 7] was 0.04% area. For the same compound, the “Impurity RRT 1.680 (by HPLC)” value [3, 7] was 0.17% area, the “(a) Description” value [3, 8] was “Off-white solid” and the “(b) Identity by FTIR” value [3, 8] was “Conforms to”. For the same compound, the “(c) Melting point by DSC” value [3, 8] was 369.1 °C, the “(d) Water content” value [3, 8] was less than 0.1% w/w and the “(e) Impurities” value [3, 8] was 0.50% area. For the same compound, the Chemical purity [3, 8] was 99.50% area, the “Impurity RRT 0.812 (by HPLC)” value [3, 8] was 0.06% area and the “Impurity RRT 1.226 (by HPLC)” value [3, 8] was 0.02% area. The “Impurity RRT 1.318 (by HPLC)” value [3, 8] was 0.04% area, the “Impurity RRT 1.484 (by HPLC)” value [3, 8] was 0.17% area and the “Impurity RRT 1.526 (by HPLC)” value [3, 8] was 0.03% area. The “Impurity RRT 1.680 (by HPLC)” value [3, 8] was 0.17% area, the “Impurity RRT 1.682 (by HPLC)” value [3, 8] was 0.01% area and the solubility at 3 h ([4]; 4 °C, acetate buffer 200 mM at 4° C., initial pH 4.6, final pH 4.6, read-out: [mesylate salt] solubility) was 37.2 mg/mL. It also gave a solubility at 3 h ([4]; acetate buffer 200 mM at ambient temperature, initial pH 4.6, final pH 4.5, read-out: [Mesylate salt] solubility) of 30.7 mg/mL, a solubility at 3 h ([4]; acetic acid/sodium acetate buffer, solution pH approximately 4.6, read-out: solubility) of roughly 35 mg/mL and a solubility at 3 h ([4]; in acetate buffer, read-out: solubility of the mesylate salt) of 32 to 37 mg/mL.

Source: patent US8013163B2 (Astex Therapeutics Limited, priority 2005, dated 2011)
